Experimental data from ChEMBL document CHEMBL2046429, “Synthesis and biological evaluation of N-aryl salicylamides with a hydroxamic acid moiety at 5-position as novel HDAC-EGFR dual inhibitors” (Bioorg Med Chem, 2012).

Assays:
[1] = molecular target: Epidermal growth factor receptor (Homo sapiens, UniProt P00533); assay: Inhibition of EGFR derived from human A431 cell membrane assessed as inhibition of poly-Glu-Tyr phosphorylation after 30 mins by ELISA assay; type: cell-based, A-431
Histone deacetylase = assay: Inhibition of HDAC derived from human HeLa cell nuclear extract using Boc-Lys(acetyl)-AMC as substrate incubated for 5 mins prior to substrate addition measured after 30 mins by fluorimetry; type: protein assay
A-431 = assay: Antiproliferative activity against human A431 cells after 48 hrs by MTT assay; type: functional, cell-based; conditions: A-431, 48 h
A549 = assay: Antiproliferative activity against human A549 cells after 48 hrs by MTT assay; type: functional, cell-based; conditions: A549, 48 h
HL-60 = assay: Antiproliferative activity against human HL60 cells after 48 hrs by MTT assay; type: functional, cell-based; conditions: HL-60, 48 h

Chain of Epidermal growth factor receptor (P00533 whole entry): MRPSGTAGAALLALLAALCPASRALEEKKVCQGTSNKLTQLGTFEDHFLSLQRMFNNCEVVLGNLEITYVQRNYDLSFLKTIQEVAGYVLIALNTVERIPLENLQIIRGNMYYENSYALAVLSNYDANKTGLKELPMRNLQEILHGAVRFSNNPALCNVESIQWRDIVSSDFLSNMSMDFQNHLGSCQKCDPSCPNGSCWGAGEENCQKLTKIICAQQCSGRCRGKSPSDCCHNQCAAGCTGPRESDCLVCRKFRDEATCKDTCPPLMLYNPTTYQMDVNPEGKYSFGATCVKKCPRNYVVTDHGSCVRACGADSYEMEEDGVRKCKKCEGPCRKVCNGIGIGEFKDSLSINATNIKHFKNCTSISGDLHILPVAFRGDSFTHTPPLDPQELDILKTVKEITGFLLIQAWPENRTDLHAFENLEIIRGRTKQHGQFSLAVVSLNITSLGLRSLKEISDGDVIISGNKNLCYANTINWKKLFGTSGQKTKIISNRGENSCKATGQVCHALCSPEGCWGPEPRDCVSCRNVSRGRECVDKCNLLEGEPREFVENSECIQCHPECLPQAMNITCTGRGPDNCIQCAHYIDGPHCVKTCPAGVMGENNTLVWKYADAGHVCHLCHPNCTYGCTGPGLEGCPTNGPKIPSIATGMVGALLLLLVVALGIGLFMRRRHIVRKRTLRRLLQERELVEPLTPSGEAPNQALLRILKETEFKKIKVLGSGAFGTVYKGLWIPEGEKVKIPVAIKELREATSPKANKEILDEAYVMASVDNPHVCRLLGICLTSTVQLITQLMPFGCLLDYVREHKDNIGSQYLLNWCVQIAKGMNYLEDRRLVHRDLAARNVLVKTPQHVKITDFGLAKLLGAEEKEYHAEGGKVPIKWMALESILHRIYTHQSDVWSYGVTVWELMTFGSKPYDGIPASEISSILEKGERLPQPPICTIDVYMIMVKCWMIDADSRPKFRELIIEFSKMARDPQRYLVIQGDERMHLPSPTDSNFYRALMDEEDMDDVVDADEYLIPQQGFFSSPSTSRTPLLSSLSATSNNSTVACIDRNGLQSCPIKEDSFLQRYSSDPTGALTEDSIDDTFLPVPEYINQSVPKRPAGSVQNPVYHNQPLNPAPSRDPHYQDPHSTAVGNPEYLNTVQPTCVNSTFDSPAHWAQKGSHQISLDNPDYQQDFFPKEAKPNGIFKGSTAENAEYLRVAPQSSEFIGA

| Compound | IC50 [1] [nM] | IC50 (Histone deacetylase) [µM] | IC50 (A-431) [µM] | IC50 (A549) [µM] | IC50 (HL-60) [µM] |
| --- | --- | --- | --- | --- | --- |
| O=C(CCCCCC(=O)Nc1ccc(O)c(C(=O)Nc2cccc(C(F)(F)F)c2)c1)NO | 4200 | 3.19 | 2.75 | 25.7 | > 100 |
| O=C(CCCCCC(=O)Nc1ccc(O)c(C(=O)Nc2ccc(OCc3cccc(F)c3)c(Cl)c2)c1)NO | 1100 | 3.01 | 2.6 | 12.4 | > 100 |
| COc1cc(O)c(C(=O)Nc2ccc(F)c(Cl)c2)cc1NC(=O)CCCCCC(=O)NO | – | 1.09 | – | – | – |
| C#Cc1cccc(NC(=O)c2cc(NC(=O)CCCCCC(=O)NO)c(OC)cc2O)c1 | 1120 | 1.86 | 4.68 | 18.4 | 28.6 |
| C#Cc1cccc(NC(=O)c2cccc(NC(=O)CCCCCC(=O)NO)c2)c1 | 6170 | 3.27 | 7.08 | 37.6 | > 100 |
| C#Cc1cccc(NC(=O)c2cc(NC(=O)CCCCCC(=O)NO)ccc2OC)c1 | 5160 | 0.56 | 4.2 | 40.7 | 7.1 |
| C#Cc1cccc(NC(=O)c2cc(OCCCCCCC(=O)NO)ccc2O)c1 | 900 | 1.21 | 1.88 | 15.5 | 30.9 |

Second part, the compound after the results:

| IC50 [1] [nM] | IC50 (Histone deacetylase) [µM] | IC50 (A-431) [µM] | IC50 (A549) [µM] | IC50 (HL-60) [µM] | Compound |
| --- | --- | --- | --- | --- | --- |
| 2340 | 1.89 | 5.85 | 14.6 | 20.3 | O=C(CCCCCC(=O)Nc1ccc(O)c(C(=O)Nc2ccccc2)c1)NO |
| 1410 | 3.59 | 4.28 | 37.2 | > 100 | O=C(CCCCCC(=O)Nc1ccc(O)c(C(=O)Nc2cccc(F)c2)c1)NO |
| 2220 | 6.02 | 4.01 | 70.1 | > 100 | O=C(CCCCCC(=O)Nc1ccc(O)c(C(=O)Nc2ccc(F)c(F)c2)c1)NO |
| 3530 | 3.02 | 3.48 | 21.1 | > 100 | O=C(CCCCCC(=O)Nc1ccc(O)c(C(=O)Nc2ccc(F)c(Cl)c2)c1)NO |
| 3310 | 4.09 | 5.75 | 76.2 | > 100 | C#Cc1cccc(NC(=O)c2cc(NC(=O)CCCCCC(=O)NO)ccc2O)c1 |
| 1800 | 3.65 | 3.8 | 17.8 | > 100 | O=C(CCCCCC(=O)Nc1ccc(O)c(C(=O)Nc2ccc(Cl)c(Cl)c2)c1)NO |
| 1410 | 3.48 | 4.14 | 24.1 | > 100 | O=C(CCCCCC(=O)Nc1ccc(O)c(C(=O)Nc2ccc(Cl)c(C(F)(F)F)c2)c1)NO |
| 2250 | 2.03 | 6.11 | 43.6 | > 100 | C#Cc1cccc(NC(=O)c2cc(NC(=O)CCCCCCC(=O)NO)ccc2O)c1 |
